# Reference: patent US6281342A, “Pradimicin compounds” (Bristol-Myers Squibb Company, priority 1994, dated 2001)
# Read-outs that look alike come from different tables or passages of the source.
# Experiments:
# [1] = tested on: Saccharomyces cerevisiae ATCC 9763; test: MIC, two-fold agar dilution, S. cerevisiae ATCC 9763; assay type: cell-based; conditions: ATCC9763, YMA pH 7.0, 28° C., 40 hours
# Experimental: (§1) Minimum inhibitory concentrations (MICs) of nine 4'-N-substituted pradimicin derivatives were determined by two-fold agar dilution method on phosphate-buffered yeast morphology agar (YMA, pH 7.0, Difco Laboratories). A 5-μl of fungal cell suspension containing 2×10^6 cells/ml (2×10^7 cells/ml for Trichophyton mentagrophytes) were spotted on the surface of the agar plates containing test compound. MICs were recorded after 40-hour incubation at 28° C. except for T. mentagrophytes, which required 60-hour incubation to produce visually evaluable growth on the drug-free control plates and were defined as the lowest antibiotic concentrations showing no growth or less than five discrete colonies per spot.
# (§2) Medium: yeast morphology agar + 1/15 M phosphate buffer (pH 7.0)
# (§3) Incubation conditions: 28° C., 40 hours (C. albicans ATCC 38247 & T.
# (§4) Medium: Yeast morphology agar + 1/15 phosphate buffer (pH 7.0).
# [2] = tested on: Candida albicans IAM 4888; test: MIC, two-fold agar dilution, C. albicans IAM 4888; assay type: cell-based; conditions: IAM4888, YMA pH 7.0, 28° C., 40 hours
# Experimental: as §1, §2, §3, §4
# [3] = tested on: Candida albicans A9540; test: MIC, two-fold agar dilution, C. albicans A9540; assay type: cell-based
# Experimental: as §1, §2, §3, §4
# [4] = tested on: Candida albicans ATCC 38247; test: MIC, two-fold agar dilution, C. albicans ATCC 38247; assay type: cell-based; conditions: ATCC38247, YMA pH 7.0, 28° C., 60 hours (table footnote)
# Experimental: as §1, §2, §3
# (§5) mentagrophytes #4329: 28° C., 60 hours).
# as §4
# [5] = tested on: Candida albicans ATCC 32354; test: MIC, two-fold agar dilution, C. albicans ATCC 32354; assay type: cell-based; conditions: ATCC32354, YMA pH 7.0, 28° C., 40 hours
# Experimental: as §1, §2, §3, §4
# [6] = tested on: Candida albicans 83-2-14; test: MIC, two-fold agar dilution, C. albicans 83-2-14; assay type: cell-based; conditions: 83214, YMA pH 7.0, 28° C., 40 hours
# Experimental: as §1, §2, §3, §4
# [7] = tested on: Candida tropicalis 85-8; test: MIC, two-fold agar dilution, C. tropicalis 85-8; assay type: cell-based; conditions: 858, YMA pH 7.0, 28° C., 40 hours
# Experimental: as §1, §2, §3, §4
# [8] = tested on: Candida tropicalis IFO 10241; test: MIC, two-fold agar dilution, C. tropicalis IFO 10241; assay type: cell-based; conditions: IFO10241, YMA pH 7.0, 28° C., 40 hours
# Experimental: as §1, §2, §3, §4
# [9] = tested on: Cryptococcus neoformans D49; test: MIC, two-fold agar dilution, C. neoformans D49; assay type: cell-based; conditions: YMA pH 7.0, 28° C., 40 hours
# Experimental: as §1, §2, §3, §4
# [10] = tested on: Cryptococcus neoformans IAM 4514; test: MIC, two-fold agar dilution, C. neoformans IAM 4514; assay type: cell-based; conditions: IAM4514
# Experimental: as §1, §2, §3, §4
# [11] = tested on: Aspergillus fumigatus IAM 2034; test: MIC, two-fold agar dilution, A. fumigatus IAM 2034; assay type: cell-based; conditions: IAM2034
# Experimental: as §1, §2, §3, §4
# [12] = tested on: Trichophyton mentagrophytes #4329; test: MIC, two-fold agar dilution, T. mentagrophytes #4329; assay type: cell-based
# Experimental: as §1, §2, §3, §5, §4
# [13] = tested on: Candida albicans A9540; test: animal or person; assay type: in vivo, male ICR mice infected with Candida albicans A9540; conditions: for S/T (No. of survivors/tested) / responders at 6.3 mg/kg / responders at 12.5 mg/kg / responders at 25 mg/kg / responders at 50 mg/kg: 20th day post-infection; for responders at 6.3 mg/kg / responders at 12.5 mg/kg / responders at 25 mg/kg / responders at 50 mg/kg: read-out: S/T (No. of survivors/tested) (converted)
# Experimental: (§6) The in vivo therapeutic efficacies of seven 4'-N-substituted pradimicin derivatives, KHM-1, KHM-2, KHM-3, KHM-4, KHM-5, KHM-6 and KHM-7 were evaluated in the mouse infected with Candida albicans A9540 and Aspergillus fumigatusIAM 2034. Groups of five specific-pathogen-free male ICR mice weighing 20-25 g at each dose level were intravenously infected with approximately 10 times the 50% lethal dose of C. albicans A9540 (1×10^6 cells/mouse) or A. fumigatus IAM 2034 (1×10^7 cells/mouse). Immediately after the fungal infection, test compounds dissolved with 10% DMSO in distilled water were intravenously given to the mouse at the dosed volume of 0.1 ml/10 g of body weight. […] Untreated control animals died 7 to 13 days post-infection.
# [14] = tested on: Aspergillus fumigatus IAM 2034; test: Therapeutic efficacy in Aspergillus fumigatus systemic infection in mice; assay type: in vivo, male ICR mice infected with Aspergillus fumigatus IAM 2034
# Experimental: as §6
# [15] = Water solubility at neutral pH in PBS containing Ca^2+/Mg^2+; assay type: physicochemical; conditions: pbs with ca2+/mg2+; Table 3; water-solubility at neutral pH in phosphate buffered saline containing Ca^2+/Mg^2+
# Experimental: The compounds of the invention have good water solubility. Typically, the water solubility is greater than 10 mg/ml when measured at neutral pH in PBS containing Ca^2+ /Mg^2+, preferably greater than 20 mg/ml.
# ^2) Water-solubility at neutral pH in phosphate buffered saline
# containing Ca^2+ /Mg^2+.
# [16] = Candida albicans A9540, YMA pH 7.0, 28° C., 40 hours, read-out: MIC
# [17] = Table 3, Candida albicans A9540, YMA, read-out: MIC Ca-4
# [18] = Cryptococcus neoformans IAM 4514, YMA pH 7.0, 28° C., 40 hours, read-out: MIC
# [19] = Table 3, Cryptococcus neoformans IAM 4514, YMA, read-out: MIC Cn-2
# [20] = Aspergillus fumigatus IAM 2034, YMA pH 7.0, 28° C., 40 hours, read-out: MIC
# [21] = Table 3, Aspergillus fumigatus IAM 2034, YMA, read-out: MIC Af-3
# [22] = Table 3, Trichophyton mentagrophytes #4329, YMA, read-out: MIC TM-4
# [23] = Trichophyton mentagrophytes #4329, YMA pH 7.0, 28° C., 60 hours, read-out: MIC
# [24] = Candida albicans, A9540, 480 h, Table 2, C. albicans, mice, iv, 95% confidence limits in parentheses, read-out: PD50 (50% protection dose)
# [25] = Candida albicans, A9540, 480 h, C. albicans, mice, 6.3 mg/kg iv
# [26] = Candida albicans, A9540, 480 h, C. albicans, mice, 12.5 mg/kg iv
# [27] = Candida albicans, A9540, 480 h, C. albicans, mice, 25 mg/kg iv
# [28] = Candida albicans, A9540, 480 h, C. albicans, mice, 50 mg/kg iv
Structure (SMILES),MIC [1],"MIC [3, 16]","MIC [3, 17]",MIC [4],MIC [5],MIC [6],MIC [7],MIC [8],MIC [9],"MIC [10, 18]","MIC [10, 19]","MIC [11, 20]","MIC [11, 21]","MIC [12, 22]","MIC [12, 23]","ED50 [13, 24]","responders at 6.3 mg/kg [13, 25]","responders at 12.5 mg/kg [13, 26]","responders at 25 mg/kg [13, 27]","responders at 50 mg/kg [13, 28]",further results
"COc1cc(O)c2c(c1)C(=O)c1c(cc3c(c1O)-c1c(cc(C)c(C(=O)N[C@H](C)C(=O)O)c1O)[C@H](O[C@@H]1O[C@H](C)[C@H](N(C)C#N)[C@H](O[C@@H]4OC[C@@H](O)[C@H](O)[C@H]4O)[C@H]1O)[C@H]3O)C2=O [KHM-1, 4'-N-Cyanogradimicin A]",1.6 µg/mL,3.1 µg/mL,3.1 µg/mL,1.6 µg/mL,3.1 µg/mL,3.1 µg/mL,12.5 µg/mL,12.5 µg/mL,3.1 µg/mL,3.1 µg/mL,3.1 µg/mL,12.5 µg/mL,12.5 µg/mL,25 µg/mL,25 µg/mL,13 mg/kg,–,–,–,–,"MIC [2]: 3.1 µg/mL; S/T (No. of survivors/tested) ([13]; C. albicans, mice, 6.3 mg/kg iv): 1/5; S/T (No. of survivors/tested) ([13]; C. albicans, mice, 12.5 mg/kg iv): 3/5; S/T (No. of survivors/tested) ([13]; C. albicans, mice, 25 mg/kg iv): 4/5; S/T (No. of survivors/tested) ([13]; C. albicans, mice, 50 mg/kg iv): 5/5; S/T (No. of survivors/tested) ([14]; A. fumigatus, mice, 6.3 mg/kg iv, 20th day post-infection): 0.5; S/T (No. of survivors/tested) ([14]; A. fumigatus, mice, 12.5 mg/kg iv, 20th day post-infection): 2/5; S/T (No. of survivors/tested) ([14]; A. fumigatus, mice, 25 mg/kg iv, 20th day post-infection): 0/5; S/T (No. of survivors/tested) ([14]; A. fumigatus, mice, 50 mg/kg iv, 20th day post-infection): 1/5; ED50 ([14]; Aspergillus fumigatus, IAM2034, iv, 480 h, read-out: PD50 (50% protection dose)): > 50 mg/kg; ED50 ([14]; IAM2034, 480 h, Table 3, Aspergillus fumigatus IAM 2034, iv, read-out: PD50 (mice) Af-3): > 50 mg/kg"
"CN[C@@H]1[C@H](O[C@@H]2OC[C@@H](O)[C@H](O)[C@H]2O)[C@@H](O)[C@H](O[C@H]2c3cc(C)c(C(=O)N[C@H](CO)C(=O)O)c(O)c3-c3c(cc4c(c3O)C(=O)c3cc(OC)cc(O)c3C4=O)[C@@H]2O)O[C@@H]1C [Pradimicin FA-1, reference compound]",1.6 µg/mL,6.3 µg/mL,6.3 µg/mL,1.6 µg/mL,3.1 µg/mL,6.3 µg/mL,6.3 µg/mL,6.3 µg/mL,1.6 µg/mL,0.8 µg/mL,0.8 µg/mL,1.6 µg/mL,1.6 µg/mL,1.6 µg/mL,1.6 µg/mL,18 mg/kg,0%,20%,80%,100%,"responders at 6.3 mg/kg ([14]; Aspergillus fumigatus, IAM2034, 480 h, A. fumigatus, mice, 6.3 mg/kg iv, 20th day post-infection, read-out: S/T (No. of survivors/tested) (converted)): 0%; responders at 12.5 mg/kg ([14]; Aspergillus fumigatus, IAM2034, 480 h, A. fumigatus, mice, 12.5 mg/kg iv, 20th day post-infection, read-out: S/T (No. of survivors/tested) (converted)): 20%; responders at 25 mg/kg ([14]; Aspergillus fumigatus, IAM2034, 480 h, A. fumigatus, mice, 25 mg/kg iv, 20th day post-infection, read-out: S/T (No. of survivors/tested) (converted)): 40%; responders at 50 mg/kg ([14]; Aspergillus fumigatus, IAM2034, 480 h, A. fumigatus, mice, 50 mg/kg iv, 20th day post-infection, read-out: S/T (No. of survivors/tested) (converted)): 80%; ED50 ([14]; Aspergillus fumigatus, IAM2034, 480 h, Table 2, A. fumigatus, mice, iv, 95% confidence limits in parentheses, read-out: PD50 (50% protection dose)): 27 mg/kg; solubility [15]: 260 µg/mL"
"COc1cc(O)c2c(c1)C(=O)c1c(cc3c(c1O)-c1c(cc(C)c(C(=O)N[C@H](CO)C(=O)O)c1O)[C@H](O[C@@H]1O[C@H](C)[C@H](N)[C@H](O[C@@H]4OC[C@@H](O)[C@H](O)[C@H]4O)[C@H]1O)[C@H]3O)C2=O [Pradimicin FA-2, reference compound]",1.6 µg/mL,6.3 µg/mL,6.3 µg/mL,1.6 µg/mL,3.1 µg/mL,6.3 µg/mL,6.3 µg/mL,6.3 µg/mL,1.6 µg/mL,1.6 µg/mL,1.6 µg/mL,1.6 µg/mL,1.6 µg/mL,3.1 µg/mL,3.1 µg/mL,7.7 mg/kg,40%,80%,100%,100%,"ED50 ([13]; 480 h, Table 3, Candida albicans A9540, iv, read-out: PD50 (mice) Ca-4): 7.4 mg/kg; solubility [15]: 20 µg/mL"
